# Measurements taken from paper PMC9022229, “Induction of Paraptosis by Cyclometalated Iridium Complex-Peptide Hybrids and CGP37157 via a Mitochondrial Ca^2+ Overload Triggered by Membrane Fusion between Mitochondria and the Endoplasmic Reticulum” (Biochemistry, 2022).
# Residues, ends and D or L forms follow the SMILES beside them. *: point of attachment. X1 = O=C(COc1ccc(-c2ccccn2)cc1)NCCCCCCCCN*
# What was measured:
# Jurkat cells [1] = tested on: Jurkat cells; design: method as in PMID 25875312, PMID 28032992, doi:10.1002/ejic.201700846, PMID 30154833, PMID 30177492; details: Chart 1, previously reported; read-out: EC50 against Jurkat cells; cited from earlier work
# Jurkat cells [2] = assay: Intracellular uptake in Jurkat cells by ICP-MS; type: cell-based; details: 5 μM, 37 °C, 5% CO2, ICP-MS, n = 3
# Method: The time-dependent intracellular uptake of 4 into Jurkat cells was measured by ICP-MS (inductively coupled plasma-mass spectrometry). Jurkat cells were treated with 4 (5 μM) for 30 min, 1 h, 2 h, and 3 h at 37 °C under 5% CO2, washed three times with PBS, and lysed with nitric acid at 4 °C overnight. The lysates were diluted with H2O, and the samples were analyzed by ICP-MS.
# In a 1.5 mL Eppendorf tube, Jurkat cells (1.0 × 10^6 cells) were treated with 4 (5 μM) for 0–3 h at 37 °C under 5% CO2 (n = 3). After the cells had been washed three times with PBS, HNO3 (60%, 0.5 mL) was added to the cells and the resulting solutions were incubated overnight at 4 °C. After centrifugation (15000 rpm, 4 °C, 10 min), the supernatant was transferred to a 15 mL tube, diluted with H2O (4.5 mL), and filtered. The number of iridium atoms was measured by ICP-MS (NexION300S, PerkinElmer).
# IMR90 cells = tested on: IMR90 cells; design: method as in PMID 25875312, PMID 28032992, doi:10.1002/ejic.201700846, PMID 30154833, PMID 30177492; details: Chart 1, normal cell line, previously reported; read-out: EC50 against IMR90 cells; cited from earlier work
# A549 cells = assay: MTT assay of A549 cells; type: cell-based, human; details: 24 h, 10% FBS/DMEM, 37 °C, 5% CO2
# Method: (§1) HeLa S3 and A549 cells (2.0 × 10^4 cells/well) were seeded on a 96-well plate (BD Falcon) in cell culture medium and incubated overnight at 37 °C under 5% CO2. Jurkat (2.0 × 10^4 cells/well), HeLa S3, and A549 cells were treated with 4 (0–25 μM) and CGP37157 (0–100 μM) for 1, 3, 6, 12, and 24 h at 37 °C under 5% CO2, after which a MTT solution in PBS (0.5%, 10 μL) was added to each well.
# (§2) Figure S3. MTT assay of HeLa S3 cells (plain curves with filled circles) and A549 cells (dashed curves with filled squares) treated with CGP37157 (0–100 µM) in 10% FBS/MEM (HeLa S3 cells) and 10% FBS/DMEM (A549 cells) for 24 h at 37 °C under 5% CO 2.
# (§3) Figure S4. MTT assay of Jurkat cells treated with inhibitors of programmed cell death; Z-VAD-fmk (an apoptosis inhibitor), necrostatin-1 (Nec-1: a necroptosis inhibitor), and 3-methyl adenine (3-MA, an autophagy inhibitor) in the presence of CGP37157 (100 µM, 12 h). Values are shown as the mean ± SD for three independent experiments. ** P < 0.01.
# (§4) (also on this page, place not known: Cell viability (% control) CO2. 50 Cell viability (% control) 0300 00030 of)
# HeLa S3 cells = assay: MTT assay of HeLa S3 cells; type: cell-based, human; details: 24 h, 10% FBS/MEM, 37 °C, 5% CO2
# Method: as §1, §2, §3, §4
Structure (SMILES),EC50 (Jurkat cells [1]) [µM],Ir atom (intracellular amount) (Jurkat cells [2]; 30 min) [fmol/cell],Ir atom (intracellular amount) (Jurkat cells [2]; 1 h) [fmol/cell],Ir atom (intracellular amount) (Jurkat cells [2]; 2 h) [fmol/cell],Ir atom (intracellular amount) (Jurkat cells [2]; 3 h) [fmol/cell],EC50 (IMR90 cells) [µM],EC50 (A549 cells) [µM],EC50 (HeLa S3 cells) [µM]
NCCCC[C@H](NC(=O)[C@H](CCCCN)NC(=O)[C@@H](N)CCCCN)C(=O)NCC(=O)NCC(=O)NCCCCCCCCNC(=O)COc1ccc(-c2ccccn2)cc1 [compound 4] (H-KKKGG-X1),1.5,0.64 ± 0.01,1.3 ± 0.1,1.2 ± 0.1,1.5 ± 0.4,> 25,–,–
O=C1CSC(c2ccccc2Cl)c2cc(Cl)ccc2N1 (centres unmarked) [CGP37157],–,–,–,–,–,–,81,45
